Earlier results in EP0731703B1, “LIPOSOMAL FORMULATIONS CONTAINING VIDARABINE OR ITS DERIVATIVES” (INSTITUTO NACIONAL DE ENGENHARIA E TECNOLOGIA …, priority 1993, dated 1995).

Details: literature (Schabel 1968; LePage et al. 1972)

Nc1ncnc2c1ncn2[C@@H]1O[C@H](COP(=O)(O)O)[C@@H](O)[C@@H]1O [ARA-AMP, 9-β-D--arabinofuranosyladenine monophosphate]
aqueous solubility: water-soluble

Nc1ncnc2c1ncn2[C@@H]1O[C@H](CO)[C@@H](O)[C@@H]1O [ARA-A, 9-β-D-arabinofuranosyladenine]
aqueous solubility: poor aqueous solubility
